# Assay results published in publication PMC11284788, “NN1213 – A Potent, Long-Acting, and Selective Analog of Human Amylin” (Journal of Medicinal Chemistry, 2024).
# Like-named read-outs stand apart in the source and are kept apart here. Numbered stars: 1 amine (or outer) side, 2 acyl side, 3 side chain; on linkers, the order of the positions; unused ones are H or OH. Bridge positions count the residues as written; N and C are the ends. Side chains are listed from the residue outwards. Peptide text beside a SMILES is read from it. * marks the point of attachment. C20 diacid = O=C(O)CCCCCCCCCCCCCCCCCCC(=O)*; γGlu = O=C(O)[C@H](CCC(=O)[*:2])N[*:1]
# Key:
# hCTR = target: T1, hCTR (Homo sapiens, UniProt P30988); experiment: cAMP-responsive element luciferase reporter assay, human CTR; format: cell-based; details: luciferase (human receptor assay)
# T1 sequence (P30988 25-474): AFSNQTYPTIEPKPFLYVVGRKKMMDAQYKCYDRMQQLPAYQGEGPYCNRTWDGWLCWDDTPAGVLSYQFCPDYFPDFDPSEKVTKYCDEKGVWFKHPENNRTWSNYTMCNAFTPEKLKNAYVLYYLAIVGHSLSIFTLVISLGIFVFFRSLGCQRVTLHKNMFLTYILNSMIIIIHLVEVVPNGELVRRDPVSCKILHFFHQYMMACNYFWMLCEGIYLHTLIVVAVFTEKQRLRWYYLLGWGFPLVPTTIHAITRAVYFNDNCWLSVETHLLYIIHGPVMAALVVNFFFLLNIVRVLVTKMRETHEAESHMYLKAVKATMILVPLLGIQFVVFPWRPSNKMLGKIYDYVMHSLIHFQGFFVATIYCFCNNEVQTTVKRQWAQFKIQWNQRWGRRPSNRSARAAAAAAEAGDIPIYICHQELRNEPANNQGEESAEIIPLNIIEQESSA
# [1] = HMWP content by size-exclusion chromatography; format: physicochemical; details: covalent dimers and polymers prior to fibril formation testing, SEC, % of total absorbance area at 215 nm
# Protocol: The stability properties of the individual amylin analogs were assessed with respect to their propensity toward amyloid fibril formation. The relative amount of covalent dimers and polymers (HMWP) present prior to fibril formation testing was measured as a control for the potential inhibitory effect of HMWP on fibril formation propensity as reported elsewhere.[39]
# Elution was performed under isocratic conditions with the following mobile phase prepared in Milli-Q water (Millipore A/S): 0.5 M NaCl, 10 mM sodium dihydrogen monohydrate, 5 mM ortho-phosphoric acid, 50% (v/v) 2-propanol. The amount of HMWP was determined as the absorbance area of the corresponding peaks given in percentage of the total absorbance area. The molar extinction coefficients of the molecules eluting in the HMWP fraction and the main peak was assumed to be equal.
# hAMY3R = target: T2, hAMY3R (Homo sapiens, UniProt O60896+P30988); experiment: cAMP-responsive element luciferase reporter assay, human AMY3R; format: cell-based; design: expressed in transfected cells; details: for EC50: luciferase (human receptor assay)
# T2 sequence (P30988 25-474): T1 sequence (P30988 25-474)
# T2 sequence (O60896 24-148 partner): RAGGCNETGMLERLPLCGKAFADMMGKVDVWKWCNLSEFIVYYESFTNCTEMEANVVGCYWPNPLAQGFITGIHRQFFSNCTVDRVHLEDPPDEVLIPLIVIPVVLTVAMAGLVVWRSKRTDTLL
# [2] = ThT assay: fibril formation propensity and peptide recovery; format: physicochemical; details: for recovery: residual dissolved peptide after 45 h of shaking, centrifugation and 0.22 μm filtration, HPLC, relative to amount before stress
# Protocol: The stability properties of the individual amylin analogs were assessed with respect to their propensity toward fibril formation, expressed as the time until fibril formation (measured as Lag time) and loss of dissolved peptide (assessed as Peptide Recovery). […] Samples were prepared as described previously (using the same methodology and materials) for a novel amylin-based analog candidate compound.[7]
# Briefly, each compound was dissolved in 10 mM of glycylglycine buffer (pH 4.0) or HEPES buffer (pH 7.5) to a concentration of 250 μM, followed by ThT stock solution to a final concentration of 1 μM. Each solution was aliquoted into a microtiter plate (200 μL/well) sealed with a transparent adhesive sheet. Mechanical stress was applied at 37 °C incubation (960 rpm, 1 mm amplitude) with 20 min fluorescence reading intervals for 45 h (filters: excitation 444 nm; emission 485 nm). Each peptide was tested in experiments consisting of four replicas (e.g., four wells on the same plate), and the lag time of each replica was determined by visual inspection of the fluorescence-versus-time plot. For wells where no fibril formation could be detected, the lag time was set longer than the test period (>45 h). The lag time of the peptide was set to the lowest lag time of the four replicates (conservative estimate). Some of the peptides were tested in more than one experiment, and the lag time results given in Tables 6 and 9 represent the average of these experiments. The ThT time course data given in Supporting Information represent the average and SEM of each experiment.[40] After analysis, wells representing individual replicas were pooled, and the residual soluble peptide was isolated using centrifugation (20,000 g/30 min at room temperature) followed by […] filtration. The amount of residual dissolved peptide was determined using an HPLC with a flow rate of 2 mL/min at 30 °C and 215/276 nm detection. A gradient combining eluent A (7.7% w/w acetonitrile, 200 mM Na2SO4, 20 mM NaH2PO4, 20 mM Na2HPO4, pH 7.2) and eluent B (65.5% w/w acetonitrile) was applied. The amount of residual dissolved peptide was reported on a relative scale (Peptide Recovery) to the amount of dissolved peptide prior to mechanical stress.
# [3] = Solubility versus pH profile
# rats = experiment: Acute food intake in rats; format: in vivo, rat; details: single sc injection of 30 nmol/kg, relative to vehicle, mean ± SEM, n = 5–7 per group
smiles,measurement,setting,value
CC[C@H](C)[C@H](NC(=O)[C@@H]1CCCN1C(=O)CNC(=O)[C@H](Cc1ccccc1)NC(=O)[C@@H]1CCCN1C(=O)[C@H](CC(N)=O)NC(=O)[C@H](CO)NC(=O)[C@H](CO)NC(=O)[C@H](Cc1c[nH]cn1)NC(=O)[C@H](CCCNC(=N)N)NC(=O)[C@H](CC(C)C)NC(=O)[C@H](Cc1ccccc1)NC(=O)[C@H](CC(=O)O)NC(=O)[C@H](C)NC(=O)[C@H](CC(C)C)NC(=O)[C@H](CCCNC(=N)N)NC(=O)[C@H](CCC(N)=O)NC(=O)[C@@H](NC(=O)[C@H](C)NC(=O)[C@@H]1CSSC[C@H](NC(=O)[C@@H](N)CCCCNC(=O)CC[C@H](NC(=O)CC[C@H](NC(=O)CCCCCCCCCCCCCCCCCCC(=O)O)C(=O)O)C(=O)O)C(=O)N[C@@H](CC(N)=O)C(=O)N[C@@H]([C@@H](C)O)C(=O)N[C@@H](C)C(=O)N[C@@H]([C@@H](C)O)C(=O)N1)[C@@H](C)O)C(=O)N[C@@H](CC(C)C)C(=O)N[C@@H](CO)C(=O)N[C@@H](CO)C(=O)N[C@H](C(=O)N[C@@H](CC(N)=O)C(=O)N[C@H](C(=O)NCC(=O)N[C@@H](CO)C(=O)N[C@@H](CC(=O)O)C(=O)N[C@H](C(=O)N[C@@H](Cc1ccc(O)cc1)C(N)=O)[C@@H](C)O)C(C)C)[C@@H](C)O [Peptide 4] (H-K([γGlu-γGlu-C20 diacid])CNTATCATQRLADFLRHSSNPFGPILSSTNVGSDTY-NH2; disulfide 2-7),EC50,"hCTR; Tables S12 and S14, read-out: hCTR pEC50 (converted)",676 pM
same,EC50,"hCTR; BHK cells stably expressing hCTR and CRE-luciferase, 3 h, 37 °C, 10% FBS, read-out: hCTR EC50",672 pM
same,HMWP,[1]; analogs 1–9 (pH 7.5 series),5%
same,EC50,"hAMY3R; Tables S12 and S14, read-out: hAMY3R pEC50 (converted)",269 pM
same,EC50,"hAMY3R; BHK cells stably expressing hCTR+RAMP3 and CRE-luciferase, 3 h, 37 °C, 10% FBS, read-out: hAMY3R EC50",267 pM
same,ratio hCTR/hAMY3R,hAMY3R; ratio of luciferase EC50 values,2.5
same,"ThT, pH 7.5 lag-time","[2]; 250 μM peptide, 10 mM HEPES pH 7.5, 1 μM ThT, 37 °C, 960 rpm, 45 h, lowest of four replicas, average of experiments",4 h
same,recovery,[2]; pH 7.5,21%
same,solubility kinetic,"[3]; bis-tris-propane buffer, pH 6, aqueous buffer",173 µM
same,solubility kinetic,"[3]; bis-tris-propane buffer, pH 6.5, aqueous buffer",≥ 200 µM
same,solubility kinetic,"[3]; bis-tris-propane buffer, pH 7, aqueous buffer",≥ 200 µM
same,solubility kinetic,"[3]; bis-tris-propane buffer, pH 7.5, aqueous buffer",≥ 200 µM
same,solubility kinetic,"[3]; bis-tris-propane buffer, pH 8, aqueous buffer",≥ 200 µM
same,solubility kinetic,"[3]; lactate buffer, pH 4, aqueous buffer",≥ 200 µM
same,solubility kinetic,"[3]; lactate buffer, pH 5, aqueous buffer",38 µM
CC[C@H](C)[C@H](NC(=O)[C@H](C)NC(=O)CNC(=O)[C@H](Cc1ccccc1)NC(=O)[C@H](CC(N)=O)NC(=O)[C@@H]1CCCN1C(=O)[C@H](CO)NC(=O)[C@H](CO)NC(=O)[C@H](Cc1c[nH]cn1)NC(=O)[C@H](CCCNC(=N)N)NC(=O)[C@H](CC(C)C)NC(=O)[C@H](Cc1ccccc1)NC(=O)[C@H](CC(N)=O)NC(=O)[C@H](C)NC(=O)[C@H](CC(C)C)NC(=O)[C@H](CCCNC(=N)N)NC(=O)[C@H](CCC(N)=O)NC(=O)[C@@H](NC(=O)[C@H](C)NC(=O)[C@@H]1CSSC[C@H](NC(=O)[C@H](CCCCN)NC(=O)COCCOCCNC(=O)CC[C@H](NC(=O)CCCCCCCCCCCCCCCCCCC(=O)O)C(=O)O)C(=O)N[C@@H](CC(N)=O)C(=O)N[C@@H]([C@@H](C)O)C(=O)N[C@@H](C)C(=O)N[C@@H]([C@@H](C)O)C(=O)N1)[C@@H](C)O)C(=O)N1CCC[C@H]1C(=O)N[C@@H](CO)C(=O)N[C@@H](CO)C(=O)N[C@H](C(=O)N[C@@H](CC(N)=O)C(=O)N[C@H](C(=O)NCC(=O)N[C@@H](CO)C(=O)N[C@@H](CCCNC(=N)N)C(=O)N[C@H](C(=O)N[C@@H](Cc1ccc(O)cc1)C(N)=O)[C@@H](C)O)C(C)C)[C@@H](C)O [Peptide 15],HMWP,[1]; analogs 10–21 (pH 4.0 series),0.7%
same,"ThT, pH 4.0 lag-time","[2]; 250 μM peptide, 10 mM glycylglycine pH 4.0, 1 μM ThT, 37 °C, 960 rpm, 45 h, lowest of four replicas, average of experiments",27 h
same,recovery,[2]; pH 4.0,67%
same,Acute food intake reduction 24–48 h,rats,0 ± 5%
same,solubility kinetic,"[3]; pH 4, aqueous buffer",≥ 200 µM
same,solubility kinetic,"[3]; pH 5, aqueous buffer",≥ 200 µM
same,solubility kinetic,"[3]; pH 6, aqueous buffer",≥ 200 µM
same,solubility kinetic,"[3]; pH 6.5, aqueous buffer",≥ 200 µM
same,solubility kinetic,"[3]; pH 7, aqueous buffer",≥ 200 µM
same,solubility kinetic,"[3]; pH 7.5, aqueous buffer",≥ 200 µM
same,solubility kinetic,"[3]; pH 8, aqueous buffer",≥ 200 µM
